Patent US6492369B2, “Therapeutic agents for drug dependence” (Santen Pharmaceutical Co., Ltd., priority 1998, dated 2002)
Where a name gives a salt, the structure may show the parent alone.

How the values were obtained:
[1] = system: Male Sprague-Dawley rats; assay: Conditioned place preference test (CPP method): potential of test compound and addicting drugs to induce psychological dependence; format: in vivo, rat
From the text: Effects of 1,4-(diphenylalkyl)piperazine derivatives on the potency of induction of psychological dependence by addicting drugs were studied by using the conditioned place preference test (CPP method) according to the report of Suzuki et al. (Life Science, 57, 1277-1284 (1995)).
Test of Potential to Induce Psychological Dependence of Test Compound and Addicting Drugs
Male Sprague-Dawley rats, body weight: about 250 g, 5.5 weeks old, were used in groups of eight.
An apparatus was used wherein a rectangular parallelepiped box was divided into two compartments at the center in length by a sliding partition and one compartment was made white, while the other compartment was made black.
A test compound and addicting drugs to be used were dissolved in physiological saline.
The solutions of the test compound (0.3 mg/ml, 1 mg/ml and 3 mg/ml solutions) were administered subcutaneously to the rats (1 ml/kg) The solutions of the addicting drugs were administered subcutaneously to morphine administration groups (2 mg/ml, 4 mg/ml and 8 mg/ml solutions of morphine hydrochloride) and intraperitonealy to cocaine administration groups (2 mg/ml, 4 mg/ml and 8 mg/ml solutions of cocaine hydrochloride) and to methamphetamine administration groups (1 mg/ml, 2 mg/ml and 4 mg/ml) (1 ml/kg respectively). Physiological saline was administered by the same method as the method of administration of each administration group (1 ml/kg respectively).
The rats were placed in the box from which the partition had been removed. Each cumulative time the rats had spent in the white compartment and the black compartment respectively was measured for 15 minutes, and the spent time in the compartment where the rats had spent a longer time (pre-value) was determined from a difference between them. This operation was carried out once a day for three days.
The box was divided into two compartments by the partition. The solution of the addicting drug or the solution of the test compound was administered subcutaneously to the rats. The rats were confined for 50 minutes to the compartment in which the rats had spent a shorter time in pre-conditioning. The next day, physiological saline was administered subcutaneously to the rats and, next, the rats were confined for 50 minutes to the compartment in which the rats had spent a longer time. This training was repeated three times (2×3 days).
The partition was removed from the box, and the conditioned rats were placed in the box. Each cumulative time the rats spent in the white compartment and the black compartment respectively was measured for 15 minutes, and the spent time in the compartment where the rats had spent a longer time (post value) was determined from a difference between them.
The cumulative time the rats had spent in the respective compartments was measured by using an infrared sensor.
The potential to induce psychological dependence was evaluated by using CPP scores (sec.) showing a motivational effect of the conditioning drug as an index.
The motivational effects of the addicting drugs and the test compound, which were the conditioning drugs, were determined by the following equation.
CPP score (sec.)=post value (sec.)−pre value (sec.)

[2] = system: Male Sprague-Dawley rats; assay: Conditioned place preference test (CPP method): effect of test compound on potential of addicting drugs to induce psychological dependence; format: in vivo, rat; details: for Inhibition rate (%) of CPP score: average of eight
From the text: (Life Science, 57, 1277-1284 (1995)). Effect of Test Compound on Potential of Addicting Drugs to Induce Psychological Dependence Male Sprague-Dawley rats, body weight: about 250 g, 5.5 weeks old, were used in groups of eight. An apparatus was used wherein a rectangular parallelepiped box was divided into two compartments at the center in length by a sliding partition and one compartment was made white, while the other compartment was made black. A test compound and addicting drugs to be used were dissolved in physiological saline. The solutions of the test compound (1 mg/ml and 3 mg/ml) were administered subcutaneously to the rats (1 ml/kg). […] The rats were placed in the box from which the partition had been removed. Each cumulative time the rats had spent in the white compartment and the black compartment respectively was measured for 15 minutes, and the spent time in the compartment where the rats had spent a longer time (pre value) was determined from a difference between them. This operation was carried out once a day for three days. The box was divided into two compartments by the partition. The solution of the test compound was administered to the rats, and 30 minutes later, the solution of the addicting drug was further administered to the rats. The rats were confined for 50 minutes to the compartment in which the rats had spent a shorter time in pre-conditioning. The next day, only physiological saline was administered to the rats, and next the rats were confined for 50 minutes to the compartment in which the rats had spent a longer time. This training was repeated three times (2×3 days). The partition was removed from the box, and the conditioned rats were placed in the box. Each cumulative time the rats had spent in the white compartment and the black compartment respectively was measured for 15 minutes, and the spent time in the compartment where the rats had spent a longer time (post value) was determined from a difference between them. The cumulative time the rats had spent in the respective compartments was measured by using an infrared sensor. The potential of the addicting drugs to induce psychological dependence was evaluated by using CPP scores (sec.) showing a motivational effect of the conditioning drug as an index. CPP score (sec.)=post value (sec.)−pre value (sec.) The effects of the test compound on the potential of the addicting drugs to induce psychological dependence was determined by the following equation as inhibition rates (%). Inhibition rate (%)=[(A−B)/A]×100 A: CPP score (sec.) of physiological saline administration group B: CPP score (sec.) of test compound administration group

[3] = 2 mg/kg (morphine s.c., cocaine i.p.), average of eight
[4] = 4 mg/kg (morphine s.c., cocaine i.p.), average of eight
[5] = 8 mg/kg (morphine s.c., cocaine i.p.), average of eight

Q: Which results are given for `COC(=O)[C@H]1[C@@H](OC(=O)c2ccccc2)C[C@@H]2CC[C@H]1N2C.Cl` [Cocaine, cocaine hydrochloride]?
A: CPP score [1, 3]: 141 s; CPP score [1, 4]: 178 s; CPP score [1, 5]: 259 s; Potential to induce psychological dependence (motivational effect, in words) ([1]; all doses tested): appetitive effects

Q: For `COc1ccc(CCN2CCN(CCCc3ccccc3)CC2)cc1OC` [Compound A, 1-[2-(3,4-dimethoxyphenyl)ethyl]-4-(3-phenylpropyl)piperazine dihydrochloride], which “CPP score” value ([1]; male, Sprague-Dawley, rat, in vivo, sc, 0.3 mg/kg, 6 days) is on record?
A: The value was -37 s.

Q: And the “CPP score” value ([1]; male, Sprague-Dawley, rat, in vivo, sc, 1 mg/kg, 6 days)?
A: The value was -45 s.

Q: And the “CPP score” value ([1]; male, Sprague-Dawley, rat, in vivo, sc, 3 mg/kg, 6 days)?
A: Its value is -64 s.

Q: What about the “Potential to induce psychological dependence (motivational effect, in words)” value ([1]; rat, in vivo) of the same molecule?
A: Its value is “no potential to induce psychological dependence”.

Q: What about the “Inhibition rate (%) of CPP score” value ([2]; Cocaine administration group (cocaine hydrochloride 4 mg/kg i.p.), Compound A 1 mg/kg s.c. 30 min before) of the same molecule?
A: Its value is 26%.

Q: And the “Inhibition rate (%) of CPP score” value ([2]; Cocaine administration group (cocaine hydrochloride 4 mg/kg i.p.), Compound A 3 mg/kg s.c. 30 min before)?
A: Its value is 55%.

Q: And the “Inhibition rate (%) of CPP score” value ([2]; Methamphetamine administration group (methamphetamine hydrochloride 2 mg/kg i.p.), Compound A 1 mg/kg s.c. 30 min before)?
A: The value was 55%.

Q: And the “Inhibition rate (%) of CPP score” value ([2]; Methamphetamine administration group (methamphetamine hydrochloride 2 mg/kg i.p.), Compound A 3 mg/kg s.c. 30 min before)?
A: Its value is 57%.

Q: What about the “Inhibition rate (%) of CPP score” value ([2]; Morphine administration group (morphine hydrochloride 8 mg/kg s.c.), Compound A 1 mg/kg s.c. 30 min before) of the same molecule?
A: Its value is 38%.

Q: And the “Inhibition rate (%) of CPP score” value ([2]; Morphine administration group (morphine hydrochloride 8 mg/kg s.c.), Compound A 3 mg/kg s.c. 30 min before)?
A: Its value is 50%.

Q: And the “Effect on potential of addicting drugs to induce psychological dependence (in words)” value ([2]; morphine, cocaine and methamphetamine administration groups, 1 and 3 mg/kg)?
A: The value was “apparently inhibited the potential of the addicting drugs to induce psychological dependence”.

Q: Which “Potential to induce psychological dependence (motivational effect, in words)” value ([1]; all doses tested) does the source give for `CN[C@@H](C)Cc1ccccc1.Cl` [Methamphetamine, methamphetamine hydrochloride] here?
A: Its value is “appetitive effects”.

Q: What about the “CPP score” value ([1]; methamphetamine 1 mg/kg i.p., average of eight) of the same molecule?
A: The value was 155 s.

Q: And the “CPP score” value ([1]; methamphetamine 2 mg/kg i.p., average of eight)?
A: The value was 224 s.

Q: What about the “CPP score” value ([1]; methamphetamine 4 mg/kg i.p., average of eight) of the same molecule?
A: The value was 151 s.

Q: Which results are given for `CN1CC[C@]23c4c5ccc(O)c4O[C@H]2[C@@H](O)C=C[C@H]3[C@H]1C5.Cl` [Morphine, morphine hydrochloride]?
A: CPP score [1, 3]: 171 s; CPP score [1, 4]: 187 s; CPP score [1, 5]: 228 s; Potential to induce psychological dependence (motivational effect, in words) ([1]; all doses tested): appetitive effects
